Data set [1] concerns leaf blade of rice plant (variety name: Nipponbare). The experiment in a line: Cell death spot formation on rice plant leaf blade after dropping spermidine derivative solution. The format is in vivo. Particulars: for formation of cell death spots: 1 mM aqueous solution (0.1% Tween 20), 5 μl dropped on rice leaf blade, visually evaluated; for severity of cell death compared with the compounds not introduced with hydroxyl group (Lau or ^1N Lau): same manner as Example 4, rice leaf blade. From the text: (§1) It is known that spermidine treatment of leaf blades forms HR (Hypersensitive Response) like cell death spots in various plant species (Plant Physiol., 132(4), pp. 1973-1981, […]).
The results of examination for severity of cell death are shown in FIG. 12, and those for formation of cell death spots are shown in FIG. 13. The severity of cell death was enhanced by each of the compounds introduced with one hydroxyl group at the terminal carbon atom of the lauroyl group (HydLau: YIS12OH4N, 1NHydLau: YIS12OH1N) compared with the compounds not introduced with hydroxyl group (Lau or ^1N Lau).

The next data set has as its system Arabidopsis thaliana. The experiment in a line: Cell death in Arabidopsis thaliana by visual inspection. The note with it: same manner as Example 4, visual inspection, 3 and 7 days. It is filed as in vivo.
Text: as §1

The subject of data set [2] is rice blast fungus (Kyu89-246, MAFF101506, race 003.0). The format is cell-based. Particulars: for antifungal activity against the rice blast fungus: even at the 10 mM concentration; for formation of inhibition ring against the rice blast fungus: filter paper disks, 1 mM, 5 mM or 10 mM, 28° C., 5 to 6 days, light shielding.
Data set [3] deals with rice plants at the five-leaf stage. Particulars: 5 mM, no inoculation.
Another data set concerns PR1 gene. The experiment in a line: PR1 gene expression enhancing action in Arabidopsis thaliana. Particulars: after 24 hours and 72 hours. It is filed as in vivo.
Data set [4] deals with leaf disks cut out from rice plant leaf blades. The data set can be described thus: Phytoalexin production in rice plant leaf disks immersed in aqueous solution. The note with it: 0.5 mM aqueous solution, 72 hours; not so severe compared with copper chloride.

“Also recorded” adds a separate entry of the source.

For `NCCCCNCCCN` [Spd, Spermidine, reference compound], in data set [1], the “formation of cell death spots” value is listed as “observed only in a part of the treated leaves”.
Regarding `NCCCCNCCCNC(=O)CCCCCCCCCCCO` [YIS12OH1N, 1-N-(12-hydroroxylauroyl)-spermidine], the “cell death in Arabidopsis thaliana” value with Arabidopsis thaliana was “induced severe cell death”. Moreover, in data set [2], the “antifungal activity against the rice blast fungus” value is “did not have antifungal activity” and the “formation of inhibition ring against the rice blast fungus” value is “Formation of inhibition ring was not observed”. Besides, in data set [3], the “cell death spots when only the test compounds were sprayed” value is recorded as “cell death spots were not observed”. Also, the “severity of cell death compared with the compounds not introduced with hydroxyl group (Lau or ^1N Lau)” value in data set [1] is “enhanced”.
In the case of `NCCCCN(CCCN)C(=O)CCCCCCCCCCCO` [YIS12OH4N, ^4N-(12-hydroroxylauroyl)-spermidine], the “cell death in Arabidopsis thaliana” value with Arabidopsis thaliana is reported as “induced severe cell death”. Moreover, in data set [2], the “antifungal activity against the rice blast fungus” value was “did not have antifungal activity” and the “formation of inhibition ring against the rice blast fungus” value was “Formation of inhibition ring was not observed”. The “cell death spots when only the test compounds were sprayed” value in data set [3] is reported as “cell death spots were not observed”. Further, in data set [1], the “severity of cell death compared with the compounds not introduced with hydroxyl group (Lau or ^1N Lau)” value was “enhanced”. Also, the “PR1 gene expression enhancing action relative to 1NHydLau” value in the data set with PR1 gene is “about 3 times”.
^1N-lauroylspermidine [^1N Lau]: the “formation of cell death spots” value in data set [1] was “formation of fine cell death spots”.
As for ^1N-nonanoylspermidine [^1N Non], in the data set on Arabidopsis thaliana, the “cell death in Arabidopsis thaliana” value is “induced severe cell death”. Further, the “formation of cell death spots” value in data set [1] was “formation of fine cell death spots”.
With ^4N-lauroylspermidine, in data set [4], the “browning of leaf disks” value is “browning of leaf disks” and the phytoalexin accumulation entry was “evident phytoalexin accumulation”. Further, in data set [1], the “formation of cell death spots” value is “formation of fine cell death spots; also recorded: potent cell death induction effect”.
Turning to ^4N-nonanoylspermidine, the “formation of cell death spots” value in data set [1] was “formation of fine cell death spots”.

For the origin of these results see US8741807B2 (priority 2011, dated 2014).
